Entries after “also recorded” stand apart in the source; their conditions may differ.
Columns and labels:
[1] = tested on: DSS-Induced inflammatory Bowel Disease Models in Mice; experiment: DSS-induced inflammatory bowel disease model in mice (Biological Example 2, 0.9% DSS); type: in vivo, C57BL/6 mice; settings: for colon length (Mean ± SD): 0.9% DSS 5 days, end of experiment; for body weights during the whole experiment compared with model control group: 0.9% DSS
Description: 66 female C57BL/6 mice were randomly divided into 6 groups: normal control group, model control group, cyclosporine A (25 mg/Kg), 5-ASA (100 mg/Kg), the compound in Example 27 (30 mg/Kg) and the compound in Example 26 (30 mg/Kg). There were 11 mice in each group (see Table 4 below). Besides the normal control group, the remaining groups were induced with 0.9% DSS for 5 days. The day of induction was the first day of the test and then normal drinking water was administered for 4 days. The normal control group was administered with normal drinking water all the time. The model control group, 5-ASA group, the compound in Example 27 group and the compound in Example 26 group were administered with 1% CMC-Na or the corresponding drug every day from the first day of the experiment to the end of the experiment. The cyclosporine A group was administered with cyclosporine A every day from the first day of experiment to the fifth day of the experiment and was administered with the corresponding volume of 1% CMC-Na every day from the sixth day to the end of the experiment due to toxicity. The normal control group was administered with the corresponding volume of 1% CMC-Na every day. The animals were treated and the indexes were tested at the end of the experiment.
The compound in Example 27, the compound in Example 26, 5-ASA or Cyclosporine A: Preparation Method: Suspended with 1% CMC-Na, and prepared when it was needed.
One-Way Anova test was performed with SPSS 17.0. The colony length was analyzed statistically between groups.

[2] = tested on: DSS-Induced inflammatory Bowel Disease Models in Mice; experiment: DSS-induced inflammatory bowel disease model in mice (Biological Example 5, 1.3% DSS); type: in vivo, C57BL/6 mice; settings: 30 mg/Kg i.g. Q.D, 1.3% DSS days 0-5
Description: 40 healthy female C57BL/6 mice having weight of 16-19 g were randomly divided into 4 groups in accordance with weight. There were 10 mice in each group (see Table 6 below). The first day of the experiment was recorded as Day 0. The administration regimen and induction regimen were detailed in Table 6. The change in weight of experimental animals was recorded every day. […] Samples of animal colonic tissues were obtained to measure the length. One-way ANOVA analysis of mice weights was performed by SPSS22. Statistical analyses between groups were performed. Mann-Whitney U non-parametric test was performed on the length of colon.
The experimental method used in the present biological example is identical to those in Biological Example 3.
One-way ANOVA analysis of mice body weights and colonic weights per length was performed by SPSS22. Statistical analyses between groups were performed.
Calculation Formula of Inhibitory Rate of Colonic Reduction: (Length of Colon in Administration Group−Length of Colon in Model Group)/(Length of Colon in Blank Group−Length of Colon in Model Group)

[3] = tested on: DSS-Induced Inflammatory Bowel Disease Models in Mice; experiment: DSS-induced inflammatory bowel disease model in mice (Biological Example 1, 1.6% DSS); type: in vivo, C57BL/6J mice; settings: for colon length (Mean ± SD): 1.6% DSS 8 days, end of experiment
Description: Experimental animals: C57BL/6J mice, weight of 16-18 g
Piperidine-2,6-dione derivatives, 5-ASA or Cyclosporine A: Preparation Method: Suspended with 1% CMC-Na, and prepared when it was needed.
54 C57BL/6 mice were randomly divided into 6 groups: normal control group, model control group, Example 27 groups consisting of dose of 5 mg/Kg group, dose of 10 mg/Kg group and dose of 20 mg/Kg group, and cyclosporine A-25 mg/Kg group. There were 9 mice in each group (see Table 2 below). Besides the normal control group, the remaining groups were induced with 1.6% DSS for 8 days. Normal drinking water was then administered for 3 days. The normal control group was administered with normal drinking water all the time. The model control group and the compound in Example 27 group were administered with 1% CMC-Na or the corresponding drug every day until the end of the experiment. The cyclosporine A group was administered with the corresponding drug every day from the first day of experiment to the eighth day of the experiment and was administered with the corresponding volume of 1% CMC-Na every day from the ninth day to the end of the experiment due to toxicity. At the end of the experiment, the animals were treated and the indexes such as the colon length were tested.
The homogeneity of data variance test was performed by Spss13.0. Where the variance of data was homogeneous (P>0.05), one-way ANOVA LSD test was performed. Where the variance was inhomogeneous (P≤0.05), the data were treated with extraction of a root and homogeneity of data variance test was further performed. Where the variance of data was homogeneous (P>0.05), one-way ANOVA LSD test was performed. Where the variance was still inhomogeneous (P≤0.05), then Dunnett's multiple comparison (parameter method) was performed.

ICR mice = experiment: Acute toxicity experiment of single oral administration in mice; type: in vivo; settings: 1000 mg/Kg single oral dose
In short: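 Fasted ICR mice (19–21 g, 3 male and 3 female per group) received a single oral dose of 1000 mg/Kg, given first to one of each sex, then to the remaining four. Acute signs were scored over the first 15 min, then state, deaths and daily body weight over 7 days.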

For `Nc1ccc(O)c(C(=O)O)c1` [Example 5-ASA, 5-aminosalicylic acid, reference compound], the “colon length (Mean ± SD)” value ([1]; 100 mg/Kg i.g. Q.D) was 6.1 ± 0.4 cm.

For `COCCN1C(=O)CCC(N2C(=O)c3cccc(N)c3C2=O)C1=O` (centres unmarked) [Example 27, 4-amino-2-(1-(2-methoxyethyl)-2,6-dioxopiperidin-3-yl)isoindolin-1,3-dione], the “body weights during the whole experiment compared with model control group” value ([1]; 30 mg/Kg i.g. Q.D) was “higher than that of the model control group”, the “colon length (Mean ± SD)” value ([1]; 30 mg/Kg i.g. Q.D) was 6.3 ± 0.5 cm and the “Length (cm, Mean ± SD) of colon” value [2] was 6.7 ± 0.4 cm. The inhibition in vivo at 30 mg/kg ([2]; Mus musculus, po, read-out: Inhibitory Rate of Colonic Reduction) was 81.8%, the “Disease Activity Index (DAI)” value ([3]; 5 mg/Kg i.g. Q.D, 1.6% DSS) was “better than the DAI of model control group” and the “relief of reduction in colon length in the model” value ([3]; 5 mg/Kg i.g. Q.D, 1.6% DSS) was “certain relief effects”. The “colon length (Mean ± SD)” value ([3]; 5 mg/Kg i.g. Q.D) was 6.1 ± 0.4 cm, the “Disease Activity Index (DAI)” value ([3]; 10 mg/Kg i.g. Q.D, 1.6% DSS) was “better than the DAI of model control group” and the “colon length (Mean ± SD)” value ([3]; 10 mg/Kg i.g. Q.D) was 6.2 ± 0.4 cm. The “Disease Activity Index (DAI)” value ([3]; 20 mg/Kg i.g. Q.D, 1.6% DSS) was “equivalent to the DAI of the normal control group and cyclosporine A group; also recorded: better than the DAI of model control group”, the “body weight of the animals during the experiment” value ([3]; 20 mg/Kg i.g. Q.D, 1.6% DSS) was “continuous increase trend” and the “relief of reduction in colon length in the model” value ([3]; 20 mg/Kg i.g. Q.D, 1.6% DSS) was “significant relief effects”. The “colon length (Mean ± SD)” value ([3]; 20 mg/Kg i.g. Q.D) was 6.4±0.4 cm.

`COCCCN1C(=O)CCC(N2C(=O)c3cccc(N)c3C2=O)C1=O` (centres unmarked) [Example 26, 4-amino-2-(1-(3-methoxypropyl)-2,6-dioxopiperidin-3-yl)isoindolin-1,3-dione] was tested, and the “Daily Body Weight of Tested Female Mice (Mean ± SD)” value (ICR mice; Day 1) was 18.0 ± 0.7 g, the “Daily Body Weight of Tested Male Mice (Mean ± SD)” value (ICR mice; Day 1) was 18.7 ± 0.8 g and the “Daily Body Weight of Tested Female Mice (Mean ± SD)” value (ICR mice; Day 2) was 21.9 ± 0.3 g. For the same compound, the “Daily Body Weight of Tested Male Mice (Mean ± SD)” value (ICR mice; Day 2) was 23.4 ± 0.5 g, the “Daily Body Weight of Tested Female Mice (Mean ± SD)” value (ICR mice; Day 3) was 22.1 ± 0.5 g and the “Daily Body Weight of Tested Male Mice (Mean ± SD)” value (ICR mice; Day 3) was 25.0 ± 0.6 g. The “Daily Body Weight of Tested Female Mice (Mean ± SD)” value (ICR mice; Day 4) was 22.4 ± 0.2 g, the “Daily Body Weight of Tested Male Mice (Mean ± SD)” value (ICR mice; Day 4) was 26.6 ± 1.4 g and the “Daily Body Weight of Tested Female Mice (Mean ± SD)” value (ICR mice; Day 5) was 22.7 ± 0.3 g. For the same compound, the “Daily Body Weight of Tested Male Mice (Mean ± SD)” value (ICR mice; Day 5) was 27.3 ± 1.3 g, the “Daily Body Weight of Tested Female Mice (Mean ± SD)” value (ICR mice; Day 6) was 22.6 ± 0.3 g and the “Daily Body Weight of Tested Male Mice (Mean ± SD)” value (ICR mice; Day 6) was 28.3 ± 1.3 g. For the same compound, the “Daily Body Weight of Tested Female Mice (Mean ± SD)” value (ICR mice; Day 7) was 22.4 ± 0.2 g, the “Daily Body Weight of Tested Male Mice (Mean ± SD)” value (ICR mice; Day 7) was 28.8 ± 1.4 g and the “Summary of toxic response of tested animals in 7 Days” value (ICR mice; Female) was “Abnormality was not observed in 7 days of the test”. The “Summary of toxic response of tested animals in 7 Days” value (ICR mice; Male) was “Abnormality was not observed in 7 days of the test”, the “body weights during the whole experiment compared with model control group” value ([1]; 30 mg/Kg i.g. Q.D) was “higher than that of the model control group” and the “colon length (Mean ± SD)” value ([1]; 30 mg/Kg i.g. Q.D) was 6.3 ± 0.5 cm.
